The source of these data is US20230277534A1 (Plexxikon Inc., priority 2011, published 2023).

One test addresses B-Raf V600E (Homo sapiens (Human), UniProt P15056, V600E). Nature of the test: B-Raf V600E kinase biochemical activity assay (AlphaScreen, biotin-MEK1 substrate). The conditions noted are these: 100 μM ATP. Summed up:
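IC50 was derived from AlphaScreen signal (anti-phospho-MEK1/2 antibody with streptavidin donor and Protein A acceptor beads, 3 h) across 8 compound concentrations. The kinase step ran 45 min at room temperature: 0.1 ng B-Raf V600E, 100 nM biotin-MEK1, 100 μM final ATP, pH 7.0 HEPES with MgCl2/MnCl2.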
A general note: Bead proximity is the source of the signal in Alpha formats.

The subject of test [1] is IPC-298 human melanoma cell line that expresses activated NRAS. Nature of the test: IPC-298_P-ERK cell activation assay (phosphorylated ERK, AlphaScreen). The test is classed as cell-based. Particulars: 1 h, IPC-298 cells, P-ERK activation, compound for one hour. As to the method:
B9 is a squamous cell carcinoma cell line expressing activated HRAS that was isolated from a DMBA/TPA-induced mouse model of skin carcinogenesis (Stoler, et al. The Journal of Cell Biology, 1993, 122(5), 1103-17). IPC-298 is a human melanoma cell line that expresses activated NRAS (Aubert, et al. International Journal of Cancer, 1993, 54(5), 784-92). To determine whether compounds induce phosphorylated ERK and MEK, cells are plated in a 96-well dish and treated with an 8-point titration of compound for one hour at 37° C. The media is then removed and the cells are incubated with lysis buffer containing protease and phosphatase inhibitors. Phosphorylated ERK and MEK in the resulting lysates is detected using AlphaScreen™ technology. To detect phosphorylated ERK, cell lysates are incubated with streptavidin-coated donor beads, anti-mouse IgG acceptor beads, a biotinylated anti-ERK1/2 rabbit antibody, and a mouse antibody that recognizes ERK1/2 only when it is phosphorylated on Thr202 and Tyr204. The biotinylated ERK1/2 antibody will bind to both the streptavidin-coated donor beads and to ERK1/2 (regardless of its phosphorylation state), and the phospho-ERK1/2 antibody will bind to the acceptor beads and to ERK1/2 that is phosphorylated at Thr202/Tyr204. Excitation of the beads with laser light at 680 nm produces singlet oxygen, which is rapidly quenched unless the beads are in close proximity. When ERK is phosphorylated, both antibodies can bind the same protein, bringing the donor and acceptor beads into close proximity, producing a signal that can be measured at 580 nm. MEK phosphorylation is detected using a similar approach, only with antibodies directed against total MEK1/2 and MEK1/2 that is phosphorylated at Ser217 and Ser221.

Test [2] relates to COLO205 colon adenocarcinoma cells (B-Raf V600E mutation). Put plainly: COLO205 cell growth inhibition (ATPlite). The test is classed as cell-based. The conditions noted are these: Homo sapiens, COLO 205, 72 h, 3 days. Summed up: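 Cells treated for 3 days at 37 °C, 5% CO2 with an 8-point 1:3 dilution series, top final concentration 10 μM, DMSO control. ATPlite luminescence used as a measure of cell number; IC50 from reading versus concentration.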
On the technique in general: In ATP-based viability assays light output follows the ATP content of the culture.

Test [3] has as its system A375 melanoma cells (B-Raf V600E mutation). Put plainly: A375 (A375_P-ERK) cell activity / cell growth inhibition. Type of test: cell-based. The conditions noted are these: Homo sapiens, A-375. As to the method: Compounds are assessed in a variety of cell based assays.
On day 1, cells are counted, then centrifuged in a conical tube for 5 minutes at 1000 rpm.
On day 2, compound at a maximum concentration of 5 mM is serially diluted 1:3 (e.g. 10 μL with 30 μL dimethyl sulfoxide) for a total of 8 point titration with DMSO as a control. A 1 μL aliquot of each dilution point and control is added to 249 μL growth media and 50 μL is added to a well containing cells, providing 10 μM compound at the maximum concentration point. The cells are incubated for 3 days at 37° C. in 5% CO2.
ATPlite is added 25 μL to each well, shake for 2 minutes, and the cells are incubated at room temperature for 10 minutes, then luminescence is read on Safire reader. The measured luminescence correlates directly with cell number, such that the reading as a function of compound concentration is used to determine the IC50 value.

Chain of B-Raf V600E (P15056 whole entry V600E): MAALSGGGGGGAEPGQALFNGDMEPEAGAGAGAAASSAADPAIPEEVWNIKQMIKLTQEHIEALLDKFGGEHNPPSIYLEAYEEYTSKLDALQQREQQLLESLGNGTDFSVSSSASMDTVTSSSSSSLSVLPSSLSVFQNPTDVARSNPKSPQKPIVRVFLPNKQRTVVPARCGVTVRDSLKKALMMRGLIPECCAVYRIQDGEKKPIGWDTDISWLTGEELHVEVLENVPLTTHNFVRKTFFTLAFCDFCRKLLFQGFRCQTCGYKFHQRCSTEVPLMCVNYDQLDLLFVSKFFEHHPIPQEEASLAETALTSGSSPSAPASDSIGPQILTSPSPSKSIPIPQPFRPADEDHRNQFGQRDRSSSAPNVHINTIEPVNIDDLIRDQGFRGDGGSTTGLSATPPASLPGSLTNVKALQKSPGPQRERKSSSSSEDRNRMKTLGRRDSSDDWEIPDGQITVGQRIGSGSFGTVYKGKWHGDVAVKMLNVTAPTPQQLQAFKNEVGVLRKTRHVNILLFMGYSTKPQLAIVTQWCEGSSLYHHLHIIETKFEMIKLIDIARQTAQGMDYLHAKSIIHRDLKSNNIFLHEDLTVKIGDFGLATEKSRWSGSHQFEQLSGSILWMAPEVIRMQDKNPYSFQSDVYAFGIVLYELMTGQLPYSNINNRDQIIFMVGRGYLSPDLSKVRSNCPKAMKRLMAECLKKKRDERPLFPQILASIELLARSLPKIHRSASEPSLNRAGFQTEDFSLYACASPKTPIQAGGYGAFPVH

In general, IC50 refers to the concentration needed to halve the response being measured. As usually defined, the EC50 is the concentration giving half of the maximal effect. Read a high EC50 as lower potency in that assay. Turning to `CCN(C)S(=O)(=O)Nc1cccc(C(=O)c2c[nH]c3ncc(-c4ccc(C#N)c(OC)c4)cc23)c1F` [Compound P-0060, 5-(4-cyano-3-methoxy-phenyl)-3-[3-[[ethyl(methyl)sulfamoyl]amino]-2-fluoro-benzoyl]-1H-pyrrolo[2,3-b]pyridine], the figures for the IC50 (at B-Raf V600E; in test [2]) were less than 0.1 µM and less than 1 µM, respectively. For the same compound, in test [1], the 50% effective concentration (EC50) was more than 2 µM.
The corresponding values for `O=C(c1cccc(NS(=O)(=O)N2CCCC2)c1F)c1c[nH]c2ncc(-c3ccc(F)cc3)cc12` [Compound P-0062, N-[2-fluoro-3-[5-(4-fluorophenyl)-1H-pyrrolo[2,3-b]pyridine-3-carbonyl]phenyl]pyrrolidine-1-sulfonamide] are less than 0.1 µM, less than 1 µM and more than 10 µM.
On the same counts, the results for `O=C(c1cccc(NS(=O)(=O)N2CCCC2)c1F)c1c[nH]c2ncc(-c3ccccc3)cc12` [Compound P-0063, N-[2-fluoro-3-(5-phenyl-1H-pyrrolo[2,3-b]pyridine-3-carbonyl)phenyl]pyrrolidine-1-sulfonamide] are less than 0.1 µM, less than 1 µM and more than 10 µM.
On the same counts, the results for `CN(C)S(=O)(=O)Nc1cccc(C(=O)c2c[nH]c3ncc(-c4cnc(NC5CC5)nc4)cc23)c1F` [Compound P-0064, 5-[2-(cyclopropylamino)pyrimidin-5-yl]-3-[3-(dimethylsulfamoylamino)-2-fluoro-benzoyl]-1H-pyrrolo[2,3-b]pyridine] are less than 0.1 µM, less than 1 µM and more than 10 µM.
As to `CC(C)N(C)S(=O)(=O)Nc1cccc(C(=O)c2c[nH]c3ncc(-c4cnc(C5CC5)nc4)cc23)c1F` [Compound P-0233, 5-(2-cyclopropylpyrimidin-5-yl)-3-[2-fluoro-3-[[isopropyl(methyl)sulfamoyl]amino]benzoyl]-1H-pyrrolo[2,3-b]pyridine], the IC50 was less than 0.1 µM against B-Raf V600E, more than 1 µM in test [3] and more than 1 µM in test [2].
Turning to `CC(C)(O)c1nc(-c2cnc3[nH]cc(C(=O)c4c(F)ccc(NS(=O)(=O)N5CCCC5)c4F)c3c2)cs1` [Compound P-0265, N-[2,4-difluoro-3-[5-[2-(1-hydroxy-1-methyl-ethyl)thiazol-4-yl]-1H-pyrrolo[2,3-b]pyridine-3-carbonyl]phenyl]pyrrolidine-1-sulfonamide], the half-maximal inhibitory concentration (IC50) is less than 0.1 µM at B-Raf V600E and less than 1 µM in test [2]. In test [1], this compound came in with a half-maximal effective concentration (EC50) of more than 2 µM.
On the same counts, the results for `O=C(c1c(F)ccc(NS(=O)(=O)N2CCCC2)c1F)c1c[nH]c2ncc(-c3ccnc(C4CC4)c3)cc12` [Compound P-0295, N-[3-[5-(2-cyclopropyl-4-pyridyl)-1H-pyrrolo[2,3-b]pyridine-3-carbonyl]-2,4-difluoro-phenyl]pyrrolidine-1-sulfonamide] are less than 0.1 µM, less than 1 µM and more than 2 µM.
The corresponding values for `CNS(=O)(=O)Nc1ccc(F)c(C(=O)c2c[nH]c3ncc(-c4cnc(C5CC5)nc4)cc23)c1F` [Compound P-0334, [5-(2-cyclopropylpyrimidin-5-yl)-1H-pyrrolo[2,3-b]pyridin-3-yl]-[2,6-difluoro-3-(methylsulfamoylamino)phenyl]methanone] are less than 0.1 µM, more than 1 µM and more than 2 µM.
